These results are taken from patent US20240425486A1, “FUSED BICYCLIC SUBSTITUTED N-(1H-INDOL-7-YL)BENZENESULFONAMIDES AND USES THEREOF” (Triana Biomedicines, Inc., priority 2021, published 2024).

A word on the EC50: it is the concentration needed to bring the measured effect to its halfway point. As usually defined, the IC50 is the concentration that inhibits the measured activity by half. A higher IC50 goes with a need for much substance.

The target in one assay is DCAF15/RBM39 (Homo sapiens (Human), UniProt Q14498+Q66K64). Kind of assay: AlphaLISA compound-induced DCAF15-RBM39 ternary complex formation. In kind it is binding. Particulars: His-tagged DCAF15 complex and biotin-carrying RBM39. The procedure: Example 7: Quantitative Evaluation of Compound-Induced Ternary Complex Formation Using Amplified Luminescent Proximity Homogeneous Assay
Compound-induced DCAF15-RBM39 ternary complex formation was monitored using AlphaLISA® assays (Perkin Elmer, Waltham, MA). Test compounds were first collected in a 384-well microplate (cat. #781280, Grenier Bio-One, Monroe, NC) as 2 mM stocks in 100% dimethyl sulfoxide (DMSO). These stocks were then serially diluted in DMSO by 3-fold into a new plate (cat. #781280, Grenier Bio-One, Monroe, NC) using a Mosquito HTS dispenser (Mosquito® HTS, SPT Labtech, Boston, MA). 0.2 μL of these diluted stocks were then dispensed into a 384-well Optiplate (cat. #6007290, Perkin Elmer, Waltham, MA) in duplicate wells, to assemble the final assay plate consisting of duplicated dose ranges. Separately, a protein mixture consisting of His-tagged DCAF15 complex and biotin-carrying RBM39, each at 408 nM (2.04×), was prepared in 50 mM HEPES, pH 7.5, 100 mM NaCl, 2 mM MgCl2, 0.1% BSA, 2 mM TCEP, 0.05% Tween-20 (dilution buffer). 9.8 μL of this protein mixture was then mixed with the compounds in the assay plate and incubated for one hour at room temperature. Reaction mixtures with no compounds added were included as negative controls, while a His-tagged and biotinylated GST protein was included to track general assay performance. Nickel Chelate AlphaLISA Acceptor beads (cat. #AL108M, Perkin Elmer, MA) and AlphaScreen Streptavidin Donor beads (cat. #6760002, Perkin Elmer, Waltham, MA) were prepared separately in the dilution buffer as 4× stocks (80 ug/ml). The beads were then added to the assay plate sequentially with incubation at room temperature for 1-2 hours after each addition. Signals were recorded using EnVision 2104 Multilabel Plate Reader (Perkin Elmer, Waltham, MA) and titration curves were generated in GraphPad Prism (7.00, GraphPad, La Jolla, CA).
For orientation: In Alpha technology, singlet oxygen from a donor bead excites a nearby acceptor bead.

Another assay addresses RBM39 (Homo sapiens (Human), UniProt Q14498+Q66K64). As to the kind of experiment: Western blot assay for degradation of RBM39 in HCT116 cells. Particulars: Incubation Time: 4 hours, read-out: RBM39 Degradation: IC50 (uM) [Incubation Time: 4 hours]. In kind it is cell-based. On the procedure: Example 9: Western Blot Assay Procedure for Assessing Degradation of RBM39 in HCT116 Cells
HCT116 cells were used with passage numbers ranging from 13 to 25. Cells were seeded in 12-well plated at a density of 1 million cells per well in 1 mL cell culture medium containing McCoy's 5A medium (Cat. #16600082, ThermoFisher, Waltham, MA), 10% Fetal Bovine Serum (Cat. #26140, ThermoFisher, Waltham, MA) and 1% Pen-Strep (Cat. #. 15070063, ThermoFisher, Waltham, MA) and incubated overnight. The next morning, compounds were serially diluted (1:3, 9 points) in the medium separately and were prepared 2× the final assay concentration. Subsequently, 1.0 mL medium containing DMSO or the appropriate concentration of each compound was added to respective wells. The final DMSO concentration in each well was 0.1%. […] Cells were then washed once with 1 mL of ice cold Dulbecco's phosphate-buffered saline (Cat. #28374, ThermoFisher, Waltham, MA) and then lysed with 100 μl of lysis buffer containing 1×RIPA (Cat. #. 89900, ThermoFisher, Waltham, MA) and HALT protease and phosphatase inhibitor (Cat. #78442, ThermoFisher, Waltham, MA) on ice for 10 minutes with intermittent rocking. Lysates were then sonicated in a sonication bath (3 pulses of 10 sec each with 1 min incubation on ice between each pulse). Samples were then centrifuged for 20 min at 14,000 rpm for 20 min. Supernatants were then transferred to fresh microfuge tubes and stored frozen at −80° C. until use. Total protein quantitation in lysate samples was done using the BCA protein quantitation kit following the manufacturer's instructions. […] Band intensity in images was quantified using the Image Studio Lite software (Version 5.2). Signal intensity for RBM-39 specific bands were normalized using the signal intensity for […] band, and percent degradation was assessed by comparing RBM39 signal in compound-treated vs. DMSO-treated samples.
Background: Immunoblotting shows a protein as a band on a membrane.

The target of a further assay is DCAF15 (Homo sapiens (Human), UniProt Q66K64). Kind of assay: HTRF competition assay, binary interaction with DCAF15. Particulars: competition with Alexa Fluor 647 tracer. Format: binding. The procedure: Example 8: Measurement of Binary Interaction Between Compounds and DCAF15 Using Homogeneous Time Resolved Fluorescence (HTRF)
DCAF15 interactions with test compounds were monitored using HTRF competition assays (Cisbio, Bedford, MA). Test compounds were first collected in a 384-well microplate (cat. #781280, Grenier Bio-One, Monroe, NC) as 10 mM stocks in 100% dimethyl sulfoxide (DMSO). A second stock plate (cat. #781280, Grenier Bio-One, Monroe, NC) was prepared through 3-fold serial dilution in DMSO of the afore-mentioned stocks using a Mosquito HTS dispenser (mosquito@ HTS, SPT Labtech, Boston, MA). 0.2 μL of these diluted stocks were then dispensed into a 384-well Optiplate (cat. #6007290, Perkin Elmer, Waltham, MA) in duplicate wells, to assemble the assay plate. The tracer molecule containing an Alexa Fluor 647 probe was prepared in 25 mM HEPES pH 7.5, 100 mM NaCl, 0.1 mg/ml BSA, 0.005% Tween 20, 0.5 mM TCEP (dilution buffer) to 612 nM (2.04×). Separately, His-tagged DCAF15 complex was prepared at 32 nM (4×) in the dilution buffer, and mAb Anti-6His-Eu cryptate Gold (cat. #61H12KLA, Cisbio, Bedford, MA) at 4× dilution in the detection buffer (cat. #61DB9RDF, Cisbio, Bedford, MA). These two solutions were mixed and incubated for 15 min at room temperature. 9.8 μL of the tracer solution and 10 μL of the DCAF15/mAb Anti-6His-Eu cryptate Gold mixture were added sequentially to each well in the assay plate. Reaction mixtures with no DCAF15 added were included as positive controls. The final mixture was incubated for an hour at room temperature and spun down briefly before data collection at 615 nm and 666 nm using EnVision 2104 Multilabel Plate Reader (Perkin Elmer, Bedford, MA). Binding was estimated based on ratiometric analysis and titration curves were generated in GraphPad Prism (7.00, GraphPad, La Jolla, CA).
(In TR-FRET formats the signal depends on donor and acceptor labels being close together.)

As to `O=S1(=O)Cc2ccc(S(=O)(=O)Nc3ccc(Cl)c4c(Cl)c[nH]c34)cc2C1` [Compound 17, N-(3,4-dichloro-1H-indol-7-yl)-1,3-dihydrobenzo[c]thiophene-5-sulfonamide 2,2-dioxide], at DCAF15/RBM39, the EC50 was at most 1 µM. Also, the DC50 on RBM39 is at most 1 µM. For the same molecule, the IC50 at DCAF15 lay in the range of 1 to 10 µM.
As for `O=C1NCc2cc(S(=O)(=O)Nc3ccc(Cl)c4c(Cl)c[nH]c34)ccc2O1` [Compound 42, N-(3,4-dichloro-1H-indol-7-yl)-2-oxo-3,4-dihydro-2H-benzo[e][1,3]oxazine-6-sulfonamide], the EC50 at DCAF15/RBM39 was at most 1 µM. The DC50 at RBM39 was at most 1 µM. The IC50 on DCAF15 is 1 to 10 µM.
As for `O=C1CSc2ccc(S(=O)(=O)Nc3ccc(Cl)c4c(Cl)c[nH]c34)cc2N1` [Compound 44, N-(3,4-dichloro-1H-indol-7-yl)-3-oxo-3,4-dihydro-2H-benzo[b][1,4]thiazine-6-sulfonamide], at DCAF15/RBM39, the EC50 is at most 1 µM. Besides, on RBM39, the DC50 is at most 1 µM.
